Test: Stability of GAE in mice plasma and liver homogenate (QC samples)
Assay type: in vitro ADME
Conditions: for Stability % Long term: 2 week of storage at −20 °C; for freeze-thaw stability (fraction remaining) at 50 ng/mL / freeze-thaw stability (fraction remaining) at 250 ng/mL / freeze-thaw stability (fraction remaining) at 500 ng/mL: mouse, three consecutive freeze thaw cycles (−20 °C to room temperature)
Procedure: The recovery of GAE at three concentration was 79.3, 89.6 and 99.2% in plasma. […] The analyte were also shown to be stable in the plasma at room temperature for atleast 8 h with a reduction of less than 12–15% (Table 1). Based on the result reliable, reproducible and robust method has been developed and validated.
Standard stock solutions of GAE at 1 mg/mL were prepared and dissolved in appropriate amounts of diluent stock, water, and methanol (8:2 v/v). GAE was adequately diluted with diluent stock to give an intermediate solution at 100 µg/mL for each analyte. GAE calibration standards were at concentration of 5, 10, 20, 30, 40, 50, 100, 250, 500 ng/mL. Internal standard propyl gallate (PG) were prepared to spiked aliquots of blank mouse plasma (200 µL). […] combined spiking solution at a final concentration of 5, 10, 20, 40, 50, 100, 250, 500 and 1000 ng/mL were prepared and used to spike aliquots of blank tissue homogenates of Liver, kidney, heart, brain, and spleen (400 µL). The entire sample was stored at 4 °C. Quality control samples were prepared independently in the same biological matrices (plasma and tissue homogenate of liver) stored at −20 °C until use with each analytical run. Intra-day and inter-day precision were assessed by using six replicate QC samples at three levels of GAE included in each run to determine the accuracy and precision. […] The inter-day accuracy and precision were assessed by analyzing three batches on different days. The recoveries of GAE from plasma and tissue (liver) homogenate samples were done at three QC levels. The recovery of the analyte was calculated by comparing the analyte peaks of extracted QC samples against the equivalent aqueous solution.
The QC samples were kept at room temperature for 6 h and a freeze-thaw cycle (−80 °C) was repeated for three times. […] For all storage conditions, replication of three concentrations was analyzed after the operation and the experimental result was obtained through a chromatographic area and compared with the nominal values. On the basis of previous studies reported on pharmacokinetic and biodistribution[22],[23], we standardized and validated our study to further investigate the radiomodifying action of GAE.

CCOC(=O)c1cc(O)c(O)c(O)c1 [GAE, Ethyl 3,4,5-trihydroxybenzoate]
reduction after freeze-thaw cycle (freeze-thaw cycle): less than 8% | Stability % Long term (liver, 50 ng/mL): 62.6 ± 24.5% | Stability % Short term (liver, 50 ng/mL, room temperature for 24 h): 66.9 ± 22.18% | Stability % Long term (liver, 250 ng/mL): 79.26 ± 6.06% | Stability % Short term (liver, 250 ng/mL, room temperature for 24 h): 86.8 ± 1.7% | Stability % Long term (liver, 500 ng/mL): 95.13 ± 7.6% | Stability % Short term (liver, 500 ng/mL, room temperature for 24 h): 99.9 ± 0.47% | freeze-thaw stability (fraction remaining) at 50 ng/mL (liver homogenate, liver, 50 ng/mL): 0.648 ± 0.049 | freeze-thaw stability (fraction remaining) at 250 ng/mL (liver homogenate, liver, 250 ng/mL): 0.842 ± 0.025 | freeze-thaw stability (fraction remaining) at 500 ng/mL (liver homogenate, liver, 500 ng/mL): 0.978 ± 0.049 | freeze-thaw stability (fraction remaining) at 50 ng/mL (plasma, 50 ng/mL): 0.79 ± 0.0225 | freeze-thaw stability (fraction remaining) at 250 ng/mL (plasma, 250 ng/mL): 0.901 ± 0.0093 | freeze-thaw stability (fraction remaining) at 500 ng/mL (plasma, 500 ng/mL): 0.9342 ± 0.0037 | Stability % Long term (plasma, 50 ng/mL): 70.32 ± 1.37% | Stability % Short term (plasma, 50 ng/mL, room temperature for 24 h): 79.35 ± 1.37% | Stability % Long term (plasma, 250 ng/mL): 87.55 ± 0.635% | Stability % Short term (plasma, 250 ng/mL, room temperature for 24 h): 89.67 ± 1.58% | Stability % Long term (plasma, 500 ng/mL): 92.01 ± 0.179% | Stability % Short term (plasma, 500 ng/mL, room temperature for 24 h): 99.25 ± 0.120% | reduction in plasma at room temperature (plasma, room temperature for at least 8 h): 12–15% | stability at room temperature (room temperature for 24 h, plasma and tissue samples): stable | stability at −20 °C (−20 °C for one month): stable

Reference: article PMC6906394, “Radiomodifying action, Pharmacokinetic and Biodistribution of Ethyl 3, 4, 5-trihydroxybenzoate-Implication in development of radiomitigator” (Scientific Reports, 2019)
